Assay results: patent publication US20060052357A1, “Organometallic anti-tumour agent” (priority 2001, published 2006)

What was measured:
adenocarcinoma = test: Adenocarcinoma in Balb mice, intraabdominal administration; assay type: in vivo
Experimental: 1) 10 mice of the Balb line, each of which contained an adenocarcinoma, received intraabdominal administration of Cu(acac)2M in a dose of 5 mg/kg in 0.3 ml of physiological saline solution. As control, 10 further mice of the same type with the same tumor were determined without treatment. An average tumor weight of 3.60 g was found in the control mice, while the average tumor weight in the treated mice was 0.3 g. The results for the mice treated according to the invention are indicated, with weight and size of the tumor, in table 1 below.
The average weight of the tumor was 3.60 g.

P388/vcr = test: Drug-resistant leukemia P388/vcr (vincristine-resistant) survival; assay type: in vivo, mice; conditions: 5 mg/kg, days 1-7
Text: (§1) The therapeutic efficacy was investigated on the leukemia tumor strains L-1210, P-388, and P-388 strains specifically obtained for drug resistance. The lifespan of the animals was set at 60 days in this case. Drug-resistant tumor were obtained by successive transplantation of the leukemia P-388 with ascites cells taken from mice which had been treated with rubomycin (strain P388/ph), vincristine (P388/vcr) and zisplatin (P388/cPt).
(§2) Resistance to the products mentioned appear in the 8th, 6th and 4th generation.
(§3) The products were administered intraabdominally. Cu(acac)2M was dissolved in 10% Twin 80.

P388/cPt = test: Drug-resistant leukemia P388/cPt (cisplatin-resistant) survival; assay type: in vivo, mice; conditions: 5 mg/kg, days 1-7
Text: as §1, §2, §3

[1] = tested on: drug-resistant leukemia P-388 tumors; conditions: rubomycin-, vincristine-, cisplatin-resistant P-388
Text: The drug-resistant tumors were obtained by administration of ascites cells leukemia P-388 which were derived from mice treated with rubomycin, vincristine and cisplatin.

Toxicity investigations = assay type: in vivo, five laboratory species; conditions: 5 mg/kg of body weight
Experimental: The toxicity of the complex (C5H7O2)2—Cu—C13H18Cl2N2O2 of the invention was determined on five laboratory species in various tests. […] It was additionally possible to show in the investigations that (C5H7O2)2—Cu—C13H18Cl2N2O2 induces no resistance even on prolonged administration.

B-16 melanoma tumor [2] = test: B-16 melanoma in Black-line mice (Example 6); assay type: in vivo
Experimental: After transplantation of the B-16 melanoma tumor to Black-line mice. (cell suspension with 10×10^6 cells/ml), MOC.melphalan was administered intraabdominally in a dosage of 5 mg/kg in 0.3 ml of 10% DMSO solution on days 3, 5 and 9. The animals were sacrificed on day 21 of the investigation and underwent histological, morphological examination (see table 9).
After transplantation of the B-16 melanoma tumor into black-line mice (cell suspension with 10×10^6 cells/ml), the substance was administered intraabdominally in a dosage of 0.1 mg/animal in 0.3 ml of 10% DMSO solution on days 3, 5 and 9. The animals were sacrificed on day 16 of the investigation and underwent histological, morphological examination (see table 10, FIGS. 1, 2). The DNA concentration in the tumor cells was determined by spectrophotometry after electrophoresis. (Table 10, FIG. 3).

S-180 sarcoma tumor = test: S-180 sarcoma in white crossbred mice (Example 7); assay type: in vivo; conditions: day 21
Experimental: After transplantation of the S-180 sarcoma tumor into white crossbred mice, the animals received the substance MOC.melphalan by intraabdominal administration in a dosage of 1 mg/kg in 0.3 ml of 10% DMSO solution on days 3, 5 and 9. The animals were sacrificed on day 21 of the investigation and underwent histological, morphological examination (table 11).
(§4) After transplantation of the S-180 sarcoma tumor into white crossbred mice, the animals received MOC.melphalan and melphalan by intraabdominal administration in a dosage of 5 mg/kg in 0.3 ml of 10% DMSO solution on days 3, 5, 7 and 9. The animals were sacrificed on day 21 of the investigation and underwent histological, morphological examination (table 12).
as §4, with “2, 4, 6, 8” for “3, 5, 7”, “10.” for “9.”, “13).” for “12).”

B-16 melanoma tumor [3] = test: B-16 melanoma tumor, MOC.melphalan and MOC.tegafur (Example 13); assay type: in vivo, mice; conditions: Dose 5 mg/kg (table), day 16
Experimental: MOC.tegafur was administered in a physiological solution. The animals in the control group likewise received administration of the solutions (without products). On day 16, the mice were sacrificed by decapitation, tumor tissue was removed for histological examination, and the tumor was investigated for antitumor activity (table 23). The tumors were fixed with 10% formalin, which was followed by embedding in paraffin. The section thickness of 5 μm were stained with hematoxylin-eosinome. The microscopy was carried out with a Leica Galen microscope.

[4] = tested on: tumor cell cultures (KML); test: Suppression of cell proliferation in tumor cell cultures (KML); assay type: cell-based, mice; conditions: incubation 24 hours
Experimental: The effect of the substances MOC.melphalan and MOC.tegafur of the invention on the proliferative activity, morphology and protein synthesis was investigated on tumor cell cultures (KML). This took place with the mice separated out of the melanoma-16 line. 80 000 cells/ml were distributed in 3 ml of DMEM with the addition of embryonic calf serum, 200 μ/mol of glutamine and antibiotic. After cultivation of the cells at a temperature of 37° C. for 24 hours (logarithmic cell growth phase), the MOC substances were added in the concentration of 10 and 100 μg/ml. After incubation for 24 hours, the number of live cells was determined. In parallel, the fixed specimens of the cells were prepared for morphological analysis.

## CC(=O)C=C(C)[O-].CC(=O)C=C(C)[O-].NC(Cc1ccc(N(CCCl)CCCl)cc1)C(=O)O.[Cu+2] (stereo not shown) [MOC.melphalan, (C5H7O2)2—Cu—C13H18Cl2N2O2]
adenocarcinoma; Balb mice, 5 mg/kg intraabdominal, compared with control series
  inhibition of the tumor: 91.9%
adenocarcinoma; Balb mice, 5 mg/kg intraabdominal, control 3.60 g
  average tumor weight: 0.3 g
adenocarcinoma; individual treated mice 1-10, 5 mg/kg intraabdominal, listed as Cu(acac)2M
  Size of the tumor: 0 cm
P388/vcr
  ILS %: 516%
  Number of surviving animals/number of animals in group: 5/6
P388/cPt
  ILS %: 193%
[1]
  sensitivity of the resistant tumors reduced: 4-5 fold
Toxicity investigations
  changes in organs and tissues: no specific changes
  changes in the peripheral blood count: no serious changes
  effects on renal and hepatic function: no pathological effects
B-16 melanoma tumor [2]; 0.1 mg/animal intraabdominal days 3, 5, 9, day 16
  Percentage inhibition: 78%
B-16 melanoma tumor [2]; 0.1 mg/animal intraabdominal days 3, 5, 9, day 16, control 3.22
  Average tumor mass: 0.83 g
B-16 melanoma tumor [2]; 0.1 mg/animal, day 16, control 4.2
  mitosis index: 0.6
B-16 melanoma tumor [2]; 5 mg/kg intraabdominal days 3, 5, 9, day 21
  Percentage inhibition: 100%
B-16 melanoma tumor [2]; FIG. 1, single black-line mouse after treatment, control mouse 3.15 g
  Tumor weight: 0.3 g
B-16 melanoma tumor [2]; tumor cells, 0.1 mg/animal, day 16, control 4.3
  DNA: 0.8 mg/g
S-180 sarcoma tumor; 1 mg/kg intraabdominal days 3, 5, 9
  Percentage inhibition: 100%
S-180 sarcoma tumor; 5 mg/kg intraabdominal days 2, 4, 6, 8, 10
  Percentage inhibition: 49%
S-180 sarcoma tumor; 5 mg/kg intraabdominal days 2, 4, 6, 8, 10, control 3.9 ± 0.5
  Average tumor mass: 2.0 ± 0.7 g
S-180 sarcoma tumor; 5 mg/kg intraabdominal days 3, 5, 7, 9
  Percentage inhibition: 100%
B-16 melanoma tumor [3]; control 4.22
  MI (mitosis index): 0.64
B-16 melanoma tumor [3]; intraabdominal days 3, 5, 9
  Percent inhibition: 77.71%
B-16 melanoma tumor [3]; intraabdominal days 3, 5, 9, control 3.22
  Tumor weight: 0.74 g
[4]; 10 μg/ml
  Suppression of growth cells: 30%
[4]; 100 μg/ml
  Suppression of growth cells: 95%
